Laboratory results published in patent US20070117743A1, “New antitumoral compounds” (priority 2003, published 2007).
Like-named read-outs stand apart in the source and are kept apart here.

Tests used:
Format in all cases: cell-based, human
SK-BR-3 = assay: SRB colorimetric assay of cell growth and viability, SK-BR-3; settings: 48 hours exposure
LNCaP = assay: SRB colorimetric assay of cell growth and viability, LNCaP; settings: 48 hours exposure; for GI50: read-out: GI50 LN-caP; for CC50: read-out: LC50 LN-caP
IGROV-ET = assay: SRB colorimetric assay of cell growth and viability, IGROV-ET; settings: 48 hours exposure; for CC50: read-out: LC50 IGROV-ET
SK-MEL-28 = assay: SRB colorimetric assay of cell growth and viability, SK-MEL-28; settings: 48 hours exposure; for CC50: read-out: LC50 MEL-28
IGROV-1 = assay: SRB colorimetric assay of cell growth and viability, IGROV-1; settings: 48 hours exposure
K-562 = assay: SRB colorimetric assay of cell growth and viability, K-562; settings: 48 hours exposure; for CC50: read-out: LC50 K-562
HeLa-APL = assay: SRB colorimetric assay of cell growth and viability, HeLa-APL; settings: 48 hours exposure; for CC50: read-out: LC50 HELA-APL
LoVo-Dox = assay: SRB colorimetric assay of cell growth and viability, LoVo-Dox; settings: 48 hours exposure; for CC50: read-out: LC50 LOVO-DOX
Method in brief: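 First, 5×10^3 cells per well attach for 18 hours in RPMI 1640 with 10% FBS at 37° C and 5% CO2. Next, samples spanning 10 to 10^−8 μg/mL are added for 48 hours. Finally, cells are fixed with TCA, stained with SRB for 10 minutes and read at 490 nm.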

LoVo = assay: SRB colorimetric assay of cell growth and viability, LoVo; settings: 48 hours exposure; for CC50: read-out: LC50 LOVO
DU-145 = assay: SRB colorimetric assay of cell growth and viability, DU-145; settings: 48 hours exposure
HT-29 = assay: SRB colorimetric assay of cell growth and viability, HT-29; settings: 48 hours exposure; for GI50: read-out: GI50 HT-29; for CC50: read-out: LC50 HT-29
A-549 = assay: SRB colorimetric assay of cell growth and viability, A-549; settings: 48 hours exposure; for GI50: read-out: GI50 A-549; for CC50: read-out: LC50 A-549
PANC-1 = assay: SRB colorimetric assay of cell growth and viability, PANC-1; settings: 48 hours exposure; for CC50: read-out: LC50 PANC-1
HeLa = assay: SRB colorimetric assay of cell growth and viability, HeLa; settings: 48 hours exposure; for CC50: read-out: LC50 HELA

C/C=C1\NC(=O)[C@H](Cc2ccccc2)NC(=O)[C@@H](C(C)C)NC(=O)[C@@H]([C@@H](C)CC)NC(=O)[C@H](NC(=O)[C@H](NC(=O)[C@H](CCCN)NC(=O)[C@H]2CCCN2C(=O)[C@H](NC(=O)[C@@H](NC(=O)[C@@H](NC(=O)[C@H](NC(=O)CC[C@@H](C)[C@H]2CC[C@H]3[C@@H]4CC[C@@H]5C[C@H](OC(=O)C(F)(F)F)CC[C@]5(C)[C@H]4CC[C@]23C)C(C)C)[C@@H](C)OC(=O)C(F)(F)F)C(C)C)C(C)C)[C@@H](C)CC)[C@@H](C)OC(=O)[C@H](C(C)C)NC1=O [Compound 97, [Thr(OTfa)^12, Lit(OTfa)^14]-Kahalalide F]
GI50 (SK-BR-3; SRB): 45.5 nM
LC50 (SK-BR-3; SRB): 324 nM
TGI SK-BR-3 (SK-BR-3; SRB): 1.17E−07 Molar
TGI LN-caP (LNCaP; SRB): 1.81E−06 Molar
GI50 (LNCaP; SRB): 866 nM
CC50 (LNCaP; SRB): 3770 nM
GI50 (IGROV-ET; SRB): 232 nM
TGI IGROV-ET (IGROV-ET; SRB): 4.57E−07 Molar
CC50 (IGROV-ET; SRB): 2380 nM
GI50 (SK-MEL-28; SRB): 128 nM
TGI MEL-28 (SK-MEL-28; SRB): 2.21E−07 Molar
CC50 (SK-MEL-28; SRB): 384 nM
GI50 (IGROV-1; SRB): 244 nM
LC50 (concentration causing 50% net cell killing) (IGROV-1; SRB): 2200 nM
TGI IGROV (IGROV-1; SRB): 4.64E−07 Molar
GI50 (K-562; SRB): 1280 nM
TGI K-562 (K-562; SRB): 2.34E−06 Molar
CC50 (K-562; SRB): 4270 nM
GI50 (HeLa-APL; SRB): 751 nM
TGI HELA-APL (HeLa-APL; SRB): 1.61E−06 Molar
CC50 (HeLa-APL; SRB): 3440 nM
GI50 (LoVo-Dox; SRB): 186 nM
TGI LOVO-DOX (LoVo-Dox; SRB): 3.96E−07 Molar
CC50 (LoVo-Dox; SRB): 4120 nM
GI50 (LoVo; SRB): 128 nM
TGI LOVO (LoVo; SRB): 3.01E−07 Molar
CC50 (LoVo; SRB): 1090 nM
GI50 (DU-145; SRB): 517 nM
LC50 (concentration causing 50% net cell kill) (DU-145; SRB): 2810 nM
TGI DU-145 (DU-145; SRB): 1.21E−06 Molar
TGI HT-29 (HT-29; SRB): 3.36E−07 Molar
GI50 (HT-29; SRB): 176 nM
CC50 (HT-29; SRB): 1190 nM
TGI A-549 (A-549; SRB): 1.96E−06 Molar
GI50 (A-549; SRB): 1050 nM
CC50 (A-549; SRB): 3640 nM
GI50 (PANC-1; SRB): 2640 nM
TGI PANC-1 (PANC-1; SRB): 5.22E−06 Molar
CC50 (PANC-1; SRB): 5220 nM
GI50 (HeLa; SRB): 809 nM
TGI HELA (HeLa; SRB): 1.78E−06 Molar
CC50 (HeLa; SRB): 3890 nM

C/C=C1\NC(=O)[C@H](Cc2ccccc2)NC(=O)[C@@H](C(C)C)NC(=O)[C@@H]([C@@H](C)CC)NC(=O)[C@H](NC(=O)[C@H](NC(=O)[C@H](CCCN)NC(=O)[C@H]2CCCN2C(=O)[C@H](NC(=O)[C@@H](NC(=O)[C@@H](NC(=O)[C@@H](CC2CCCCC2)NC(=O)CCCC(C)C)[C@@H](C)O)C(C)C)C(C)C)[C@@H](C)CC)[C@@H](C)OC(=O)[C@H](C(C)C)NC1=O [Compound 8, [D-Cha^13]-KF]
GI50 (SK-BR-3): 484 nM
LC50 (SK-BR-3): 3170 nM
TGI SK-BR-3 (SK-BR-3): 1.25E−06 Molar
TGI LN-caP (LNCaP): 6.53E−06 Molar
GI50 (LNCaP): 2790 nM
CC50 (LNCaP): 6530 nM
GI50 (IGROV-ET): 652 nM
TGI IGROV-ET (IGROV-ET): 1.44E−06 Molar
CC50 (IGROV-ET): 3160 nM
GI50 (SK-MEL-28): 1450 nM
TGI MEL-28 (SK-MEL-28): 2.42E−06 Molar
CC50 (SK-MEL-28): 4020 nM
GI50 (IGROV-1): 1040 nM
LC50 (concentration causing 50% net cell killing) (IGROV-1): 4290 nM
TGI IGROV (IGROV-1): 2.11E−06 Molar
GI50 (K-562): 1930 nM
TGI K-562 (K-562): 4.92E−06 Molar
CC50 (K-562): 6530 nM
GI50 (HeLa-APL): 1700 nM
TGI HELA-APL (HeLa-APL): 2.87E−06 Molar
CC50 (HeLa-APL): 4860 nM
GI50 (LoVo-Dox): 986 nM
TGI LOVO-DOX (LoVo-Dox): 2.09E−06 Molar
CC50 (LoVo-Dox): 4430 nM
GI50 (LoVo): 1010 nM
TGI LOVO (LoVo): 1.96E−06 Molar
CC50 (LoVo): 3820 nM
GI50 (DU-145): 1330 nM
LC50 (concentration causing 50% net cell kill) (DU-145): 4260 nM
TGI DU-145 (DU-145): 2.38E−06 Molar
TGI HT-29 (HT-29): 1.99E−06 Molar
GI50 (HT-29): 992 nM
CC50 (HT-29): 3990 nM
TGI A-549 (A-549): 4.18E−06 Molar
GI50 (A-549): 1970 nM
CC50 (A-549): 6530 nM
GI50 (PANC-1): 6530 nM
TGI PANC-1 (PANC-1): 6.53E−06 Molar
CC50 (PANC-1): 6530 nM
GI50 (HeLa): 1400 nM
TGI HELA (HeLa): 2.30E−06 Molar
CC50 (HeLa): 3800 nM
